# Assay results: patent US9255101B2 (BIOPROJECT, priority 2012, dated 2016)
# Structures can show the parent of a compound that is named as a salt.
# Columns and labels:
# human H4 receptor [1] = biological target: T1, human H4 receptor (Homo sapiens, UniProt Q9H3N8); assay: biochemical
# human H4 receptor [2] = biological target: T1, human H4 receptor; assay: biochemical; remark: listed apart in the source
# 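For IC50 in this document: membranes from SH-SY5Y cells with stable human H4 receptor expression, incubated with GDP 10 µM, radioactivity retained on filters counted by liquid scintillation.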
# 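For Ki in this document: radioligand displacement of a [3H]-labelled ligand from membranes of CHO cells stably expressing human H4 receptor, bound radioactivity counted on filters by liquid scintillation.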
IC50 (human H4 receptor [1]) [nM],Ki (human H4 receptor [2]) [nM],Compound
< 300,< 30,"CN1CCC(OC2c3ccccc3CCn3cc(-c4ccc(C(F)F)cc4)nc32)CC1 (stereo not drawn) [Example 69, 2-(4-difluoromethylphenyl)-4-(1-methylpiperidin-4-yloxy)-9,10-dihydro-4H-3,10a-diaza-benzo[f]azulene]"
< 30,< 300,"Cc1ccc(-c2cn3c(n2)C(OC2CCN(C)CC2)c2ccccc2CC3)c(Cl)c1 (stereo not drawn) [Example 75, 2-(2-chloro-4-methylphenyl)-4-(1-methylpiperidin-4-yloxy)-9,10-dihydro-4H-3,10a-diaza-benzo[f]azulene oxalate]"
< 300,< 30,"CN1CCC(OC2c3ccccc3CCn3cc(-c4cccc(Cl)c4)nc32)CC1 (stereo not drawn) [Example 77, 2-(3-chlorophenyl)-4-(1-methylpiperidin-4-yloxy)-9,10-dihydro-4H-3,10a-diaza-benzo[f]azulene oxalate]"
< 30,< 300,"Cc1ccc(-c2cn3c(n2)C(OC2CCN(C)CC2)c2ccccc2CC3)c(F)c1 (stereo not drawn) [Example 82, 2-(2-fluoro-4-methylphenyl)-4-(1-methylpiperidin-4-yloxy)-9,10-dihydro-4H-3,10a-diaza-benzo[f]azulene]"
< 30,< 30,"CN1CCC(OC2c3ccccc3CCn3cc(CCCc4ccccc4)nc32)CC1 (stereo not drawn) [Example 87, 4-(1-methylpiperidin-4-yloxy)-2-(3-phenylpropyl)-9,10-dihydro-4H-3,10a-diaza-benzo[f]azulene oxalate]"
< 1000,< 300,"CN1CCC(OC2c3ccccc3CCn3cc(SCc4cccs4)nc32)CC1 (stereo not drawn) [Example 88, 4-(1-methylpiperidin-4-yloxy)-2-(thiophen-2-ylmethylsulfanyl)-9,10-dihydro-4H-3,10a-diaza-benzo[f]azulene oxalate]"
< 30,< 30,"Cc1c(-c2ccccc2)nc2n1CCc1ccccc1C2OC1CCN(C)CC1 (stereo not drawn) [Example 103, 1-Methyl-4-(1-methyl-piperidin-4-yloxy)-2-phenyl-9,10-dihydro-4H-3,10a-diaza-benzo[f]azulene]"
< 30,< 30,"CN1CCC(OC2c3ccccc3CCn3cc(SCCc4ccccc4)nc32)CC1 (stereo not drawn) [Example 119, 4-(1-methylpiperidin-4-yloxy)-2-phenethylsulfanyl-9,10-dihydro-4H-3,10a-diaza-benzo[f]azulene]"

# Second part, the molecule before the results:
Compound,IC50 (human H4 receptor [1]) [nM],Ki (human H4 receptor [2]) [nM]
"C=C(C)Cc1cn2c(n1)C(OC1CCN(C)CC1)c1ccccc1CC2 (stereo not drawn) [Example 70, 2-(2-methyl-allyl)-4-(1-methylpiperidin-4-yloxy)-9,10-dihydro-4H-3,10a-diaza-benzo[f]azulene oxalate]",< 300,< 300
"CN1CCC(OC2c3ccccc3CCn3cc(C#CCNC(=O)OC(C)(C)C)nc32)CC1 (stereo not drawn) [Example 72, {3-[4-(1-methylpiperidin-4-yloxy)-9,10-dihydro-4H-3,10a-diaza-benzo[f]azulen-2-yl]-prop-2-ynyl}-carbamic acid tert-butyl ester]",< 30,< 30
"CN1CCC(OC2c3ccccc3CCn3cc(C4=CCN(C(=O)OC(C)(C)C)CC4)nc32)CC1 (stereo not drawn) [Example 74, 4-[4-(1-methylpiperidin-4-yloxy)-9,10-dihydro-4H-3,10a-diaza-benzo[f]azulen-2-yl]-3,6-dihydro-2H-pyridine-1-carboxylic acid tert-butyl ester oxalate]",< 300,< 300
"CN1CCC(OC2c3ccccc3CCn3cc(C=CCc4ccccc4)nc32)CC1 (stereo not drawn) [Example 76, 4-(1-methylpiperidin-4-yloxy)-2-(3-phenylpropenyl)-9,10-dihydro-4H-3,10a-diaza-benzo[f]azulene oxalate]",< 300,< 30
"CN1CCC(OC2c3cccc(Br)c3CCn3cc(I)nc32)CC1 (stereo not drawn) [Example 79, 8-bromo-2-iodo-4-(1-methylpiperidin-4-yloxy)-9,10-dihydro-4H-3,10a-diaza-benzo[f]azulene]",< 1000,< 300
"CN1CCC(OC2c3ccccc3CCn3cc(C4=CCCCCC4)nc32)CC1 (stereo not drawn) [Example 80, 2-cyclohept-1-enyl-4-(1-methylpiperidin-4-yloxy)-9,10-dihydro-4H-3,10a-diaza-benzo[f]azulene]",< 300,< 30
"CN1CCC(OC2c3ccccc3CCn3cc(SC4CCCC4)nc32)CC1 (stereo not drawn) [Example 86, 2-cyclopentylsulfanyl-4-(1-methylpiperidin-4-yloxy)-9,10-dihydro-4H-3,10a-diaza-benzo[f]azulene oxalate]",< 30,< 300
"CN1CCC(OC2c3ccccc3CCn3cc(CCCCCc4ccccc4)nc32)CC1 (stereo not drawn) [Example 90, 4-(1-methylpiperidin-4-yloxy)-2-(5-phenylpentyl)-9,10-dihydro-4H-3,10a-diaza-benzo[f]azulene oxalate]",< 30,< 30
"CN1CCC(OC2c3ccccc3CCn3cc(C=CC(C)(C)C)nc32)CC1 (stereo not drawn) [Example 93, 2-(3,3-dimethylbut-1-enyl)-4-(1-methylpiperidin-4-yloxy)-9,10-dihydro-4H-3,10a-diaza-benzo[f]azulene]",< 30,< 30
"CN1CCC(OC2c3ccccc3CCn3cc(CCC(C)(C)C)nc32)CC1 (stereo not drawn) [Example 94, 2-(3,3-dimethylbutyl)-4-(1-methylpiperidin-4-yloxy)-9,10-dihydro-4H-3,10a-diaza-benzo[f]azulene]",< 30,< 30
"CN1CCC(OC2c3ccccc3CCn3cc(-c4ccc(N(C)C(=O)OC(C)(C)C)cc4)nc32)CC1 (stereo not drawn) [Example 97, methyl-{4-[4-(1-methylpiperidin-4-yloxy)-9,10-dihydro-4H-3,10a-diaza-benzo[f]azulen-2-yl]-phenyl}-carbamic acid tert-butyl ester oxalate]",< 30,< 30
"CN1CCC(OC2c3ccccc3CCn3cc(C=CC4CC4)nc32)CC1 (stereo not drawn) [Example 99, 2-(2-cyclopropylvinyl)-4-(1-methylpiperidin-4-yloxy)-9,10-dihydro-4H-3,10a-diaza-benzo[f]azulene oxalate]",< 300,< 300
"CN1CCC(OC2c3ccccc3CCn3cc(CCCC4CCCC4)nc32)CC1 (stereo not drawn) [Example 105, 2-(3-cyclopentylpropyl)-4-(1-methylpiperidin-4-yloxy)-9,10-dihydro-4H-3,10a-diaza-benzo[f]azulene]",< 30,< 30
"CN1CCC(OC2c3ccccc3CCn3cc(C=Cc4ccsc4)nc32)CC1 (stereo not drawn) [Example 112, 4-(1-methylpiperidin-4-yloxy)-2-(2-thiophen-3-ylvinyl)-9,10-dihydro-4H-3,10a-diaza-benzo[f]azulene]",< 30,< 30
"CCc1c(-c2ccccc2)nc2n1CCc1ccccc1C2OC1CCN(C)CC1 (stereo not drawn) [Example 120, 1-ethyl-4-(1-methylpiperidin-4-yloxy)-2-phenyl-9,10-dihydro-4H-3,10a-diaza-benzo[f]azulene oxalate]",< 30,< 30
"CN1CCC(OC2c3ccccc3CCn3cc(C=CCOc4ccccc4)nc32)CC1 (stereo not drawn) [Example 121, 4-(1-methylpiperidin-4-yloxy)-2-(3-phenoxypropenyl)-9,10-dihydro-4H-3,10a-diaza-benzo[f]azulene]",< 30,< 30
